Test results from patent US12441732B2, “Potassium salt crystal form B of phosphodiesterase type 5 inhibitor, and preparation method and use therefor” (Guangzhou Huazhen Pharmaceutical Co., Ltd, priority 2019, dated 2025).
Where two headings read alike, the source gives them in different places.

What was measured:
[1] = Dynamic solubility test in water, SGF, FaSSIF, FeSSIF at 37° C.; format: physicochemical; conditions: for solubility at 1 h / solubility at 4 h / solubility at 24 h: read-out: solubility (S)
[2] = Solid-state stability test (one week, open); format: physicochemical; conditions: for HPLC purity: Purity after placement / Purity after placement/Starting purity / Crystal form change: open, one week; for Crystal form change: XRPD
Experimental: The solid-state stability of the potassium salt crystal form B prepared in Embodiment 1 was tested, in which 5.22 mg of potassium salt crystal form B samples were weighed and left open at 25° C./60% RH, and 5.19 mg of potassium salt crystal form B samples were weighed and left open at 40° C./75% RH. After one week, all samples were subjected to XRPD characterization (see XRPD parameter settings in Table 1) and HPLC purity test (Agilent 1100) to detect changes in crystal form and purity, wherein HPLC purity test parameters were shown in Table 6. Meanwhile, 4.59 mg of a compound WYQ sample was weighed and left open at 25° C./60% RH, and 5.11 mg of the compound WYQ sample was weighed and left open at 40° C./75% RH. The solid-state stability of these samples were performed under the same conditions for comparative reference.

[3] = Pharmacokinetic experiment in rats after gavage; format: in vivo; conditions: male SD rats, gavage 2 mg·kg^−1
Experimental: After 6 healthy male SD rats were fasted and drank water freely for 12 h, the rats was administered by gavage with the potassium salt crystal form B prepared in Embodiment 1 at 2 mg·kg^−1, and blood was taken from the Bulbus oculi venous plexus at 0.2 h, 0.5 h, 1 h, 1.5 h, 2 h, 4 h, 6 h and 8 h after administration. A solution of acetonitrile:water (1:1) was added, and centrifuging was conducted to take the supernatant for chromatographic analysis, at conditions: a chromatographic column: Thermo Fisher Hypersil gold column (3 μm, 20 mm×2.1 mm), an injection volume of 10 μL, a flow rate of 0.3 mL/min, a column temperature of 40° C., a mobile phase of water (1% formic acid) and methanol, gradient elution: methanol 10% (0 min); 10% (1 min); 90% (4 min); 90% (8 min); 10% (9 min), and with mass spectrometry conditions: multiple reaction monitoring (MRM), electrospray ionization (ESI), retention time (Dwell Time) of 200 ms, detection ion m/z 448.0-347.8. The data of blood drug concentration was analyzed with Winnolin6.3 software to obtain the pharmacokinetic parameters, thereby forming the mean blood drug concentration-time curve, as shown in FIG. 19.

IPF rats = experiment: Bleomycin-induced idiopathic pulmonary fibrosis (IPF) rats; format: in vivo, SD rats; conditions: 23 days; for Fibrosis area / Fibrosis score (Ashcroft) / Percentage of score (%) (≤3) / Percentage of score (%) (≥4): left lung
Experimental: The animals were purchased, and modeling was started after 3-7 days of acclimatization. The animals were weighed and anesthetized by inhalation with isoflurane. After the animals were confirmed to be anesthetized, the neck was disinfected, and the skin of the neck was cut. The main trachea was exposed by bluntly dissecting the muscle, a small incision was made between the tracheal rings, into which a PE-20 tube was inserted until the left main bronchus, and bleomycin was injected directly (dose: 3 mg/kg, volume: 1.0 ml/kg). The trachea and skin were sutured. After the surgery, the animals were kept warm at 37° C. under an electric blanket until the animals were fully awake and confirmed to be able to feed and drink freely before returning the animals to their normal feeding cages.
50 mg/kg Nintedanib group (BIBF-50 mg/kg): BIBF was prepared into a solution of 10 mg/ml with 0.5% sodium carboxymethyl cellulose and administered by gavage at a dose of 50 mg/kg^−1·d^−1;
Each group of rats was administered by gavage on the day of modeling, once a day for 23 days in total.
After 23 days of continuous administration, all animals in each group were euthanized by intraperitoneal injection of pentobarbital sodium anesthetic (100 mg/kg) in accordance with the KCl standard operating procedure for animal euthanasia. Whole-body perfusion was performed by low-temperature PBS, and then fixation was performed by whole-body formalin perfusion. The left lung was taken and perfused with an equal amount of formalin fluid for weighing and subsequent lung pathology-related tests.
Left lung gross pathological examination: after perfusion with an equal amount of formalin, the wet weight of the left lung after the perfusion was weighed and recorded with a microbalance; the volume of the left lung after perfusion was measured and recorded using a toe volume measuring instrument.
The whole lung of the left lung was dehydrated according to the KCl pathology standard SOPs, and paraffin blocks were prepared. The whole lung of the left lung was paraffin-sectioned at a thickness of 3-4 μm. HE staining and Masson Trichrome staining were performed according to the KCl pathology standard staining SOPs, and the slice panoramic scanning was carried out by a Hamamatsu NanoZoomer Digital Pathology (S210) slice scanner. The lung lesion area was calculated by Masson Trichrome staining of the sections, and the left lung fibrosis area (%) was the percentage of fibrosis area in the left lung area; 10 randomly selected fields of view of 1 mm^2 in the lesion area were semi-quantitatively scored by the pathologist under double-blind conditions according to the Ashcroft scoring system (as shown in Table 8 and FIG. 40).

UUO model mice = experiment: Unilateral ureteral obstruction mouse model (UUO model) of renal fibrosis; format: in vivo, C57BL/6 mice; conditions: 5 mg·kg^−1·d^−1 gavage, 7 days
Excerpt: Fifteen male C57BL/6 mice were adaptively fed for one week and randomly divided into two groups: a Sham group (a sham-operation group) including 5 mice and a surgical modeling group including 10 mice. Surgical method: the abdominal cavities of the mice in the sham-operation group were opened under anesthesia to free the left ureter without ligation, and then their abdomens were closed and sutured; the left ureters of the mice in the modeling group were ligated under anesthesia. The mice in the modeling group were further randomly divided into two groups: a UUO group (a model group) and a treatment group of the potassium salt crystal form B of WYQ (5 mg/kg), 5 mice in each group.
The first gavage administration was started 2 hours after the operation.
(2) treatment group of the potassium salt crystal form B of WYQ: the potassium salt crystal form B of WYQ was diluted into a 1 mg/ml solution with normal saline and administered by gavage at the dose of 5 mg·kg^−1·d^−1; and
administered once a day for consecutive 7 days.
After 7 days of drug administration, all the mice were sacrificed. The abdominal cavity was opened and the left and right kidney tissues were peeled off, caring to maintain the integrity of the kidneys. The kidneys were taken out and quickly transferred to pre-cooled PBS, and the kidneys were cut for different assays. The kidney was divided into four parts with a scalpel, and the dorsal side of the kidney was fixed in 4% paraformaldehyde for making paraffin sections. Morphological changes of kidney tissues were observed by HE staining and Masson staining, and changes of expression of fibrosis marker proteins in kidney tissues were observed by immunohistochemistry.

[4] = both test conditions (25° C./60% RH, 40° C./75% RH)
[5] = 10 mg/kg, listed as CPD-1, 10 mg/kg
[6] = 10 mg/kg, listed as potassium salt crystal form B of WYQ

CCCCOC(=O)[N-]S(=O)(=O)c1cccc(-c2nc3c(CCC)nn(C)c3c(=O)[nH]2)c1.[K+] [potassium salt crystal form B]
crystal form change after XRPD assay (FC) ([1]; FaSSIF, 1 h): yes
pH ([1]; FaSSIF, 1 h): 6.8
crystal form change after XRPD assay (FC) ([1]; FaSSIF, 4 h): yes
pH ([1]; FaSSIF, 4 h): 6.8
crystal form change after XRPD assay (FC) ([1]; FaSSIF, 24 h): yes
pH ([1]; FaSSIF, 24 h): 6.8
crystal form change after XRPD assay (FC) ([1]; FeSSIF, 1 h): yes
pH ([1]; FeSSIF, 1 h): 5.5
crystal form change after XRPD assay (FC) ([1]; FeSSIF, 4 h): yes
pH ([1]; FeSSIF, 4 h): 5.5
crystal form change after XRPD assay (FC) ([1]; FeSSIF, 24 h): yes
pH ([1]; FeSSIF, 24 h): 5.5
crystal form change after XRPD assay (FC) ([1]; SGF, 1 h): yes
pH ([1]; SGF, 1 h): 7.5
crystal form change after XRPD assay (FC) ([1]; SGF, 4 h): yes
pH ([1]; SGF, 4 h): 7.3
crystal form change after XRPD assay (FC) ([1]; SGF, 24 h): yes
pH ([1]; SGF, 24 h): 7.7
solubility at 1 h ([1]; fasted-state simulated intestinal fluid (FaSSIF), thermodynamic from solid, FaSSIF, 1 h): 10700 µg/mL
solubility at 4 h ([1]; fasted-state simulated intestinal fluid (FaSSIF), thermodynamic from solid, FaSSIF, 4 h): 9500 µg/mL
solubility at 24 h ([1]; fasted-state simulated intestinal fluid (FaSSIF), thermodynamic from solid, FaSSIF, 24 h): 9800 µg/mL
solubility at 1 h ([1]; fed-state simulated intestinal fluid (FeSSIF), thermodynamic from solid, FeSSIF, 1 h): 400 µg/mL
solubility at 4 h ([1]; fed-state simulated intestinal fluid (FeSSIF), thermodynamic from solid, FeSSIF, 4 h): 430 µg/mL
solubility at 24 h ([1]; fed-state simulated intestinal fluid (FeSSIF), thermodynamic from solid, FeSSIF, 24 h): 430 µg/mL
solubility at 1 h ([1]; simulated gastric fluid (SGF), simulated gastric fluid, thermodynamic from solid, SGF, 1 h): 6800 µg/mL
solubility at 4 h ([1]; simulated gastric fluid (SGF), simulated gastric fluid, thermodynamic from solid, SGF, 4 h): 7000 µg/mL
solubility at 24 h ([1]; simulated gastric fluid (SGF), simulated gastric fluid, thermodynamic from solid, SGF, 24 h): 7700 µg/mL
solubility at 1 h ([1]; thermodynamic from solid, water, 1 h): 12500 µg/mL
solubility at 4 h ([1]; thermodynamic from solid, water, 4 h): 13100 µg/mL
solubility at 24 h ([1]; thermodynamic from solid, water, 24 h): 12900 µg/mL
solubility ([1]; thermodynamic from solid, water, read-out: solubility in water (the highest)): ≤ 12900 µg/mL
crystal form change after XRPD assay (FC) ([1]; water, 1 h): weak
pH ([1]; water, 1 h): 7.6
crystal form change after XRPD assay (FC) ([1]; water, 4 h): weak
pH ([1]; water, 4 h): 7.4
crystal form change after XRPD assay (FC) ([1]; water, 24 h): weak
pH ([1]; water, 24 h): 7.4
HPLC purity: Purity after placement ([2]; 25° C./60% RH): 98.62 area %
Purity after placement/Starting purity ([2]; 25° C./60% RH): 99.9%
Crystal form change ([2]; 25° C./60% RH): unchanged
HPLC purity: Purity after placement ([2]; 40° C./75% RH): 98.51 area %
Purity after placement/Starting purity ([2]; 40° C./75% RH): 99.8%
Crystal form change ([2]; 40° C./75% RH): unchanged
change in purity after one week of placement [2, 4]: no significant change
change in the crystal form after one week of placement [2, 4]: no change
time at which the peak drug concentration was reached [3]: 0.63 ± 0.12 h
AUC(0-t) ([3]; rat, blood, po, read-out: AUC(0-4) within 8 h after administration): 639 ± 72.4 ng·h/mL
Cmax ([3]; rat, blood, po, read-out: maximum drug concentration (Cmax)): 334 ± 23.7 ng/mL
half-life ([3]; rat, blood, po, read-out: oral half-life (t112) (converted)): 2.3 ± 0.27 h
AUC(0-inf) ([3]; rat, blood, po, read-out: total area under the mean blood drug concentration-time curve AUC0-∞): 650 ± 70.8 ng·h/mL
Left lung volume (IPF rats; 2.5 mg/kg gavage once a day): 1779.9 ± 105.76 mm^3
Left lung weight (IPF rats; 2.5 mg/kg gavage once a day): 1.59 ± 0.10 g
alveolar tissue structure in left lung pulmonary fibrosis lesions (HE staining) (IPF rats; 2.5 mg/kg): some of the alveolar structures in the fibrotic lesions were damaged
alveolar tissue structure in left lung pulmonary fibrosis lesions (Masson Trichrom staining) (IPF rats; 2.5 mg/kg): some of the alveolar structures in the fibrotic lesions were preserved
Left lung volume (IPF rats; 10 mg/kg gavage once a day): 1604.5 ± 153.72 mm^3
Left lung weight (IPF rats; 10 mg/kg gavage once a day): 1.47 ± 0.16 g
alveolar tissue structure in left lung pulmonary fibrosis lesions (HE staining) (IPF rats; 10 mg/kg): the alveolar structures in the fibrotic lesions were preserved
alveolar tissue structure in left lung pulmonary fibrosis lesions (Masson Trichrom staining) (IPF rats; 10 mg/kg): most of the alveolar structures in the fibrotic lesions were preserved
smooth muscle proliferation and inflammatory cell infiltration in bronchioles and pulmonary arterioles of left lung fibrosis lesions vs model group (IPF rats; 10 mg/kg, HE staining): better effects
left lung pulmonary fibrosis lesions and lesion range vs the model group (IPF rats; different doses, H&E and Masson Trichrom staining): no significant difference
Fibrosis area (IPF rats; 2.5 mg/kg): 51.99 ± 3.21%
Fibrosis score (Ashcroft) (IPF rats; 2.5 mg/kg): 3.21 ± 0.30
Percentage of score (%) (≤3) (IPF rats; 2.5 mg/kg): 53.75 ± 9.81%
Percentage of score (%) (≥4) (IPF rats; 2.5 mg/kg): 46.25 ± 9.81%
Fibrosis area (IPF rats; 10 mg/kg): 53.42 ± 4.44%
Percentage of score (%) (≤3) (IPF rats; 10 mg/kg): 71.25 ± 10.08%
Fibrosis score (Ashcroft) (IPF rats; [5]): 2.69 ± 0.31
Percentage of score (%) (≥4) (IPF rats; [5]): 28.75 ± 10.08%
Fibrosis score (Ashcroft) (IPF rats; [6]): significantly inhibit
Percentage of score (%) (≥4) (IPF rats; [6]): significantly reduced
FN1 protein expression level in kidney tissue (immunohistochemistry) (UUO model mice): significantly reduced
fibrosis area in the renal fibrosis lesions vs UUO model group (UUO model mice): significantly decrease
proliferation of renal interstitial collagen fibers (UUO model mice): reduced
inflammatory cell infiltration in the kidney (UUO model mice; HE staining): significantly reduced
